{
  "source": "patent US9696297B2",
  "about": "“Method for preparing an X chromosome inactivated female human neural cell” (SALK INSTITUTE FOR BIOLOGICAL STUDIES, priority 2009, dated 2017)",
  "key": {"iPSC-derived neurons": {"tested_on": "iPSC-derived neurons", "experiment": "Whole-cell patch clamp recording of spontaneous postsynaptic currents", "assay_type": "cell-based, human", "conditions": "for EPSCs: 10-20 μM", "method": "Whole-cell patch clamp recordings were performed from cells co-cultured with astrocytes after 6 weeks of differentiation. The bath was constantly perfused with fresh HEPES-buffered saline as described herein. The recording micropipettes (tip resistance 3-6 MΩ) were filled with internal solution described in the Supplemental materials. Recordings were made using Axopatch 200B amplifier (Axon Instruments). Signals were filtered at 2 kHz and sampled at 5 kHz. The whole-cell capacitance was fully compensated. The series resistance was uncompensated but monitored during the experiment by the amplitude of the capacitive current in response to a 10-mV pulse. All recordings were performed at room temperature and chemicals were purchased from Sigma. Frequency and amplitude of spontaneous postsynaptic currents were measured with the Mini Analysis Program software (Synaptosoft, Leonia, N.J.). Statistical comparisons of WT and RTT groups were made using the non-parametric Kolmogorov-Smirnov two-tailed test, with a significance criterion of p=0.05. EPSCs were blocked by CNQX or DNQX (10-20 μM) and IPSPs were inhibited by bicuculine (20 μM)."}, "[1]": {"tested_on": "iPSC-derived neuronal networks", "experiment": "Calcium imaging of spontaneous calcium transients in iPSC-derived neuronal networks", "conditions": "drug treatment, concentration not printed (FIG. 11A, 11C, 11D)", "experimental": "Neuronal networks derived from human iPSCs were previously infected with the lentiviral vector carrying the Syn::DsRed reporter construct. Cell cultures were washed twice with sterile Krebs HepesHEPES Buffer (KHB) (10 mM HEPES, 4.2 mM NaHCO3, 10 mM dextrose, 1.18 mM MgSO4.2H2O, 1.18 mM KH2PO4, 4.69 mM KCl, 118 mM NaCl, 1.29 mM CaCl2; pH 7.3) and incubated with 0.2-0.5 μM Fluo-4AM (Molecular Probes/Invitrogen, Carlsbad, Calif.) in KHB for 40 minutes at room temperature. Excess dye was removed by washing twice with KHB and an additional 20-minute minutes incubation was done to equilibrate intracellular dye concentration and allow de-esterification. Time-lapse image sequences (200×100× magnification) of 5000 frames were acquired at 28 Hz with a region of 336×256 pixels, using a Hamamatsu ORCA-ER digital camera (Hamamatsu Photonics K.K., Hamamatsu City, Japan) with a 488 mm (FITC) filter on an Olympus IX81 inverted fluorescence confocal microscope (Olympus Optical, Tokyo, Japan). […]\nImageJ, an NIH funded open source, JAVA-based morphometric application, was used to allow manual selection of individual cells on the xy-plane of each movie using circles of 4 pixels (˜5 μm) in diameter. Each cell was considered as an individual region of interest (ROIs) and the average fluorescence intensity was calculated for each ROI in each frame using Time Series Analyzer ImageJ plugin. […]"}, "RTT-derived neurons": {"tested_on": "RTT-derived neurons", "experiment": "VGLUT1 puncta (glutamatergic synapse) quantification in RTT-iPSC-derived neurons, rescue experiments", "assay_type": "cell-based, human", "conditions": "for VGLUT1 puncta number / glutamatergic synapse number: RTT-derived neurons carrying different MeCP2 mutations, IGF1 10 μg/mL for 1 week"}, "WT neurons": {"tested_on": "WT neurons", "experiment": "VGLUT1 puncta (glutamatergic synapse) quantification in WT-iPSC-derived control neurons", "assay_type": "cell-based, human", "conditions": "gentamicin 400 ug/ml, 1 week", "from_the_text": "Female RTT and control fibroblasts were generated from explants of dermal biopsies following informed consent under protocols approved by the University of California San Diego. The Syn::EGFP or DsRed reporter vector was obtained by cloning the Synapsin-1 promoter in a lentivirus backbone. The shRNA against a target sequence on the human MeCP2 gene was cloned in the LentiLox3.7 lentivirus vector. Retrovirus vectors containing the Oct4, c-Myc, Klf4 and Sox2 human cDNAs from Yamanaka's group (Takahashi et al., 2007, Id.) were obtained from Addgene. Two days after infection, fibroblasts were plated on mitotically inactivated mouse embryonic fibroblasts (Chemicon) with hESC medium. After 2 weeks, iPSC colonies were directly transferred to feeder-free conditions on matrigel-coated dishes (BD) using mTeSRTM1 (StemCell Technologies), and passed manually. […]\nCells were briefly fixed in 4% paraformaldehyde and then permeabilized with 0.5% Triton-X100 in PBS. […] Fluorescent signals were detected using a Zeiss inverted microscope and images were processed with Photoshop CS3 (Adobe Systems). […] For synapse quantification, images were taken by a z-step of 1 μm using Biorad radiance 2100 confocal microscope. Synapse quantification was done blinded to genotype. Only VGLUT1 puncta along Map2-positive processes were counted. […]"}, "MeCP2": {"tested_on": "MeCP2", "experiment": "MeCP2 protein level by Western blot in RTT neurons (Q244X)", "assay_type": "cell-based, human", "conditions": "gentamicin"}},
  "note": "“Also recorded” adds a separate entry of the source.",
  "data": [
    {"molecule": "N#Cc1cc2[nH]c(=O)c(=O)[nH]c2cc1[N+](=O)[O-]", "note": "[CNQX]", "values": [
      {"measurement": "EPSCs", "setting": "iPSC-derived neurons", "value": "blocked"}
    ]},
    {"molecule": "O=[N+]([O-])c1cc2nc(O)c(O)nc2cc1[N+](=O)[O-]", "note": "[DNQX]", "values": [
      {"measurement": "EPSCs", "setting": "iPSC-derived neurons", "value": "blocked"}
    ]},
    {"molecule": "COc1ccc(-c2ccc(=N)n(CCCC(=O)O)n2)cc1", "note": "[Gabazine]", "values": [
      {"measurement": "intracellular calcium transients", "setting": "[1]", "value": "increased"}
    ]},
    {"molecule": "CN1CCc2cc3c(cc2[C@H]1[C@@H]1OC(=O)c2c1ccc1c2OCO1)OCO3", "note": "[bicuculine]", "values": [
      {"measurement": "IPSPs", "setting": "iPSC-derived neurons; 20 μM", "value": "inhibited"}
    ]},
    {"molecule": "IGF1: IGF1 (Peprotech), candidate for pharmacological treatment of RTT", "values": [
      {"measurement": "VGLUT1 puncta number / glutamatergic synapse number", "setting": "RTT-derived neurons", "value": "increased"},
      {"measurement": "VGLUT1 puncta number / glutamatergic synapse number", "setting": "RTT-derived neurons; listed as IFG1", "value": "above normal levels"}
    ]},
    {"molecule": "gentamicin", "values": [
      {"measurement": "rescue of RTT neurons (VGLUT1 puncta)", "setting": "RTT-derived neurons; RTT neurons, higher gentamicin dose 400 ug/ml, 1 week", "value": "did not rescue"},
      {"measurement": "glutamatergic synapse numbers (VGLUT1 puncta)", "setting": "RTT-derived neurons; RTT-Q244X clones 3 and 4 derived neurons, lower gentamicin dose (100 ug/ml), 1 week", "value": "increased; also recorded: rescuing; also recorded: rescue"},
      {"measurement": "number of VGLUT1 puncta in control neurons", "setting": "WT neurons", "value": "lowered"},
      {"measurement": "WT MeCP2 protein levels", "setting": "MeCP2; RTT neurons (Q244X), after 2 weeks (FIG. 10E)", "value": "increased"},
      {"measurement": "MeCP2 protein levels", "setting": "MeCP2; RTT-Q244X clones 3 and 4 derived neurons, after 1 week", "value": "increase"}
    ]}
  ]
}
